Measured values published in patent US20260207572A1, “METHODS AND COMPOSITIONS FOR TREATMENT OF SUBJECTS WITH HEPATIC IMPAIRMENTS” (ELEVAR THERAPEUTICS, INC., priority 2022, published 2026).
Where two headings read alike, the source gives them in different places.

Assays:
plasma protein [1] = test: Phase 1 study: unbound plasma concentration and fraction unbound (protein binding); format: in vivo, human; conditions: 4 h, 200 mg single oral dose; for fraction unbound at 4 h: human, plasma, po, 200 mg, read-out: Fraction Unbound, Arithmetic Mean
[2] = as above; format: in vivo, human; conditions: human, plasma, po, 200 mg, 200 mg single oral dose
CYP2D6 = CYP2D6 (Homo sapiens, UniProt P10635); test: In vitro CYP phenotyping and metabolism study, recombinant CYP2D6; format: in vitro ADME
Experimental: (§1) Recently, an in vitro cytochrome (CYP) phenotyping and metabolism study was performed.

CYP2C9 = CYP2C9 (Homo sapiens, UniProt P11712); test: In vitro CYP phenotyping and metabolism study, recombinant CYP2C9; format: in vitro ADME
Experimental: as §1

plasma protein [3] = conditions: cited from earlier work
CYP1A2 = biological target: T1, CYP1A2 (Homo sapiens, UniProt P05177); test: In vitro CYP phenotyping and metabolism study, recombinant CYP1A2; format: in vitro ADME
T1 sequence (P05177 1-516): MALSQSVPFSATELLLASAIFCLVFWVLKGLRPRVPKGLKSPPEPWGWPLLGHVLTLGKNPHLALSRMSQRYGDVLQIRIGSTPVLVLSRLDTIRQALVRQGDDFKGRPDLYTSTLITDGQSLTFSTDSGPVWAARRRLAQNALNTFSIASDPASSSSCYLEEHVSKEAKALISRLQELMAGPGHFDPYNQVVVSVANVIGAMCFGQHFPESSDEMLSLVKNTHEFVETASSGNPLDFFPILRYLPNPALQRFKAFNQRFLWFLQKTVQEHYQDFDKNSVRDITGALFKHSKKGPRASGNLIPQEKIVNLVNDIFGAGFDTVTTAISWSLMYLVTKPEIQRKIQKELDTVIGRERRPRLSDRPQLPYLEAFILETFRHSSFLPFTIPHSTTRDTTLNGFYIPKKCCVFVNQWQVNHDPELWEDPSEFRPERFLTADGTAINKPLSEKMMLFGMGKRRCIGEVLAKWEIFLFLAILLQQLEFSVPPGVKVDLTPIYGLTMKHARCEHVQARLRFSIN
Experimental: as §1

CYP2C19 = CYP2C19 (Homo sapiens, UniProt P33261); test: In vitro CYP phenotyping and metabolism study, recombinant CYP2C19; format: in vitro ADME
Experimental: as §1

[4] = Phase 1 study: safety and tolerability; format: in vivo, human
Source text: Safety was monitored through recording of adverse events (AEs), clinical laboratory evaluations (clinical chemistry, hematology, coagulation parameters, and urinalysis), vital sign measurements, 12-lead electrocardiograms (ECGs), and physical examination findings during the study.
Safety measures for this study included AEs, incidence of laboratory abnormalities (based on hematology, clinical chemistry, coagulation, and urinalysis test results), 12-lead ECG parameters, vital sign measurements, and physical examinations.
All adverse events and observed values from clinical laboratory evaluations, 12-lead ECGs, vital sign measurements, and physical examinations were listed and summarized descriptively. No inferential statistical analyses were planned for the safety data.
The condition of each subject was monitored throughout the study. Any AEs and remedial actions required were recorded. The nature, time of onset, duration, and severity were documented, together with the Investigator's opinion of the relationship to drug administration. Any clinically significant abnormalities found during the course of the study were followed up until they returned to normal or could be clinically explained.

CYP3A4 = CYP3A4 (Homo sapiens, UniProt P08684); test: In vitro CYP phenotyping and metabolism study, recombinant CYP3A4; format: in vitro ADME
Experimental: as §1

[5] = Mild Hepatic Impairment, read-out: Fraction Unbound, Geometric Mean
[6] = Mild Hepatic Impairment, read-out: Fraction Unbound, Median
[7] = Mild Hepatic Impairment, read-out: Unbound Concentration, Arithmetic Mean
[8] = Mild Hepatic Impairment, read-out: Unbound Concentration, Geometric Mean
[9] = Mild Hepatic Impairment, read-out: Unbound Concentration, Median
[10] = Moderate Hepatic Impairment, read-out: Fraction Unbound, Geometric Mean
[11] = Moderate Hepatic Impairment, read-out: Fraction Unbound, Median
[12] = Moderate Hepatic Impairment, read-out: Unbound Concentration, Arithmetic Mean
[13] = Moderate Hepatic Impairment, read-out: Unbound Concentration, Geometric Mean
[14] = Moderate Hepatic Impairment, read-out: Unbound Concentration, Median
[15] = Normal Hepatic Function, read-out: Fraction Unbound, Geometric Mean
[16] = Normal Hepatic Function, read-out: Fraction Unbound, Median
[17] = Normal Hepatic Function, read-out: Unbound Concentration, Arithmetic Mean
[18] = Normal Hepatic Function, read-out: Unbound Concentration, Geometric Mean
[19] = Normal Hepatic Function, read-out: Unbound Concentration, Median

CYP2C9, sequence (P11712 whole entry): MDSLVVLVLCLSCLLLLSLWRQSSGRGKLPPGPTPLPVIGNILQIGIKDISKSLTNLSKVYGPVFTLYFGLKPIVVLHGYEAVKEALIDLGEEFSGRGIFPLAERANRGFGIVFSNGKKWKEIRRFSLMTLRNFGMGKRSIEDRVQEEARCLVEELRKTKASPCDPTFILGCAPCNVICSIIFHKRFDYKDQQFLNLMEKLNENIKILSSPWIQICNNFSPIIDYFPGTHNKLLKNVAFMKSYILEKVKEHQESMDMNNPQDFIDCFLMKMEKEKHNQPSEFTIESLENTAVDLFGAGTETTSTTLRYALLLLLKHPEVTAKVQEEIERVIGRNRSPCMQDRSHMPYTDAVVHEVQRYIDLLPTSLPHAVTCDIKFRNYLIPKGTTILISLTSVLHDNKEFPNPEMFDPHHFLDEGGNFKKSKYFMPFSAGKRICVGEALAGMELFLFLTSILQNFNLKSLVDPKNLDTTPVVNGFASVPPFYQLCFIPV
CYP2C19, sequence (P33261 whole entry): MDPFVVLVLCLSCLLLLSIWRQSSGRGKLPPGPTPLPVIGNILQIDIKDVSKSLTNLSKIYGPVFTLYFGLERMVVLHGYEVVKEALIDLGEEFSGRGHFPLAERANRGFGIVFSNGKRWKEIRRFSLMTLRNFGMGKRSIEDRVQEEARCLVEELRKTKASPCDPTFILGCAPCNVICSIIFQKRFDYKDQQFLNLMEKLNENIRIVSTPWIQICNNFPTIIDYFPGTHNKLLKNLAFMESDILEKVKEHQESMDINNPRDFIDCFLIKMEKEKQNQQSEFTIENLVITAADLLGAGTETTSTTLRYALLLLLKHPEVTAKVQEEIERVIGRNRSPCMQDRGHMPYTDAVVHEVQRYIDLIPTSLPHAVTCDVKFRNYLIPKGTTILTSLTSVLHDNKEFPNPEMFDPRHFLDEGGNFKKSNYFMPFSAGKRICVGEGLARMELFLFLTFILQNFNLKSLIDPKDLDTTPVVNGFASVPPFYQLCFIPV
CYP2D6, sequence (P10635 whole entry): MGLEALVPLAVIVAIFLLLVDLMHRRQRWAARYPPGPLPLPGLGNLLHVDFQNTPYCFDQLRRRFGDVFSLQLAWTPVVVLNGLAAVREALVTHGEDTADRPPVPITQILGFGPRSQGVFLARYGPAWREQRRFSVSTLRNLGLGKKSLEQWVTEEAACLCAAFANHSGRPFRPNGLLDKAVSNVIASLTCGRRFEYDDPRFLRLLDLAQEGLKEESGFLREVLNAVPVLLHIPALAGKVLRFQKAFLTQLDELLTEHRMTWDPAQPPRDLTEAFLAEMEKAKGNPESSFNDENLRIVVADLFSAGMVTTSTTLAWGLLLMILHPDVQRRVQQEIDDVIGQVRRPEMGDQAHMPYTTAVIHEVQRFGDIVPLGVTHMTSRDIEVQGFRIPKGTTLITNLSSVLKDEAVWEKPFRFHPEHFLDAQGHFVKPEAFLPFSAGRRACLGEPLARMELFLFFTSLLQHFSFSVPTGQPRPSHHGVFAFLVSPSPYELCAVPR
CYP3A4, sequence (P08684 whole entry): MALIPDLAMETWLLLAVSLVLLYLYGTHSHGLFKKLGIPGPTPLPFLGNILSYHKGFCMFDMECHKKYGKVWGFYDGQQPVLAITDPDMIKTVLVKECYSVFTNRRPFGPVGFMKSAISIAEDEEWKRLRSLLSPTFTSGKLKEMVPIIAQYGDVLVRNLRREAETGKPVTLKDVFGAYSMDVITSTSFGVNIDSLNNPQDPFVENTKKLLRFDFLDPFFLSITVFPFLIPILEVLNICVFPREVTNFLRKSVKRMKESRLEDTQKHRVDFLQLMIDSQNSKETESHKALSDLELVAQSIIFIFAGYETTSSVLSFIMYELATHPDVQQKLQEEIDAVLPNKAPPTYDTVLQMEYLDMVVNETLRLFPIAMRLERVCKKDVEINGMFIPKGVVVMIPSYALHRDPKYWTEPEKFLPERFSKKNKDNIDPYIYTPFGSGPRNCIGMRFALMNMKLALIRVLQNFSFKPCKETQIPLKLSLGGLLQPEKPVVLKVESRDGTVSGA

With `N#CC1(c2ccc(NC(=O)c3cccnc3NCc3ccncc3)cc2)CCCC1` [Rivoceranib, N-[4-(1-cyanocyclopentyl)phenyl]-2-{[(pyridin-4-yl)methyl]amino} pyridine-3-carboxamide] the “Fraction Unbound, Arithmetic Mean” value (plasma protein [1]; Mild Hepatic Impairment) was 2.39%, the fraction unbound at 4 h (plasma protein [1]; Mild Hepatic Impairment) was 0.0239 ± 0.00639 and the fraction unbound at 4 h (plasma protein [1]; Moderate Hepatic Impairment) was 0.0425 ± 0.022. The fraction unbound at 4 h (plasma protein [1]; Normal Hepatic Function) was 0.0265 ± 0.0119, the fraction unbound at 4 h [2, 5] was 0.0232 and the fraction unbound at 4 h [2, 6] was 0.0232. The concentration at 4 h [2, 7] was 3.78 ng/mL, the concentration at 4 h [2, 8] was 2.59 ng/mL and the concentration at 4 h [2, 9] was 2.37 ng/mL. The fraction unbound at 24 h ([2]; Mild Hepatic Impairment, read-out: Fraction Unbound, Arithmetic Mean) was 0.0201, the fraction unbound at 24 h [2, 5] was 0.0191 and the fraction unbound at 24 h [2, 6] was 0.0174. For the same molecule, the concentration at 24 h [2, 7] was 0.63 ng/mL, the concentration at 24 h [2, 8] was 0.55 ng/mL and the concentration at 24 h [2, 9] was 0.65 ng/mL. The fraction unbound at 4 h [2, 10] was 0.0373, the fraction unbound at 4 h [2, 11] was 0.0419 and the concentration at 4 h [2, 12] was 4.73 ng/mL. It also gave a concentration at 4 h [2, 13] of 4.52 ng/mL, a concentration at 4 h [2, 14] of 4.15 ng/mL and a fraction unbound at 24 h ([2]; Moderate Hepatic Impairment, read-out: Fraction Unbound, Arithmetic Mean) of 0.022. For the same molecule, the fraction unbound at 24 h [2, 10] was 0.021, the fraction unbound at 24 h [2, 11] was 0.021 and the concentration at 24 h [2, 12] was 1.07 ng/mL. The concentration at 24 h [2, 13] was 0.82 ng/mL, the concentration at 24 h [2, 14] was 0.82 ng/mL and the fraction unbound at 4 h [2, 15] was 0.0243. For the same molecule, the fraction unbound at 4 h [2, 16] was 0.0212, the concentration at 4 h [2, 17] was 4.44 ng/mL and the concentration at 4 h [2, 18] was 3.62 ng/mL. The concentration at 4 h [2, 19] was 3.76 ng/mL, the fraction unbound at 24 h ([2]; Normal Hepatic Function, read-out: Fraction Unbound, Arithmetic Mean) was 0.0172 and the fraction unbound at 24 h [2, 15] was 0.0168. It also gave a fraction unbound at 24 h [2, 16] of 0.0155, a concentration at 24 h [2, 17] of 0.73 ng/mL and a concentration at 24 h [2, 18] of 0.68 ng/mL. The concentration at 24 h [2, 19] was 0.69 ng/mL, the “rivoceranib consumed at 60 minute incubation” value (from here on “rivoceranib consumed”) (CYP2D6; CYP2D6) was “more than 60%” and the “% Remaining at 60 minute incubation” value (CYP2D6; Recombinant CYP2D6, 5 μM) was 34.9%. The CLINT (CYP2D6; Recombinant CYP2D6, 5 μM) was 0.587 μL/minunte/mg, the half-life at 5 µM (CYP2D6; human, Recombinant CYP2D6, 5 μM, read-out: t½) was 0.787 h and the “rivoceranib consumed” value (CYP2C9; CYP2C9) was “less than 10%”. For the same molecule, the “% Remaining at 60 minute incubation” value (CYP2C9; Recombinant CYP2C9, 5 μM) was 90.3%, the CLINT (CYP2C9; Recombinant CYP2C9, 5 μM) was 0.119 μL/minunte/mg and the half-life at 5 µM (CYP2C9; human, Recombinant CYP2C9, 5 μM, read-out: t½) was 3.9 h. For the same molecule, the plasma protein binding (plasma protein [3]) was 97%, the “rivoceranib consumed” value (CYP1A2; CYP1A2) was “less than 10%” and the “% Remaining at 60 minute incubation” value (CYP1A2; Recombinant CYP1A2, 5 μM) was 94.7%. The CLINT (CYP1A2; Recombinant CYP1A2, 5 μM) was 0.041 μL/minunte/mg, the half-life at 5 µM (CYP1A2; human, Recombinant CYP1A2, 5 μM, read-out: t½) was 11.2 h and the “rivoceranib consumed” value (CYP2C19; CYP2C19) was “less than 10%”. The “% Remaining at 60 minute incubation” value (CYP2C19; Recombinant CYP2C19, 5 μM) was 98.9%, the CLINT (CYP2C19; Recombinant CYP2C19, 5 μM) was 0.057 μL/minunte/mg and the half-life at 5 µM (CYP2C19; human, Recombinant CYP2C19, 5 μM, read-out: t½) was 8.05 h. The tolerability ([4]; 200 mg single dose (freebase), healthy subjects and subjects with mild and moderate hepatic impairment) was “well tolerated”, the “subjects with treatment-emergent adverse events (TEAEs)” value ([4]; 200 mg single dose, 27 subjects overall, both in the Mild hepatic impairment group) was 2 (7.4%) subjects and the “laboratory, ECG, physical examination abnormalities” value ([4]; 200 mg single dose, all groups) was “no clinically significant laboratory, ECG, or physical examinations abnormalities”. The “treatment emergent SAEs, TEAEs leading to discontinuation, deaths” value ([4]; 200 mg single dose, all groups) was “No treatment emergent serious adverse events (SAEs), TEAEs leading to discontinuation, or deaths”, the “rivoceranib consumed” value (CYP3A4; CYP3A4) was “more than 60%” and the “% Remaining at 60 minute incubation” value (CYP3A4; Recombinant CYP3A4, 5 μM) was 37.6%. The CLINT (CYP3A4; Recombinant CYP3A4, 5 μM) was 0.704 μL/minunte/mg and the half-life at 5 µM (CYP3A4; human, Recombinant CYP3A4, 5 μM, read-out: t½) was 0.657 h.
